Measured values published in ChEMBL document CHEMBL4725353, “Discovery of Pyrido[2,3-b]indole Derivatives with Gram-Negative Activity Targeting Both DNA Gyrase and Topoisomerase IV” (J Med Chem, 2020).
≈ marks a conversion by molar mass, not a printed value. Calls of active or inactive are those of the source. The rule behind the calls is not given here.

How the values were obtained:
[1] = in vitro; conditions: mouse, liver microsomes
Description: Intrinsic clearance in mouse liver microsomes preincubated for 10 mins followed by NADPH regenerating system addition and measured up to 30 mins by LC/MS-MS analysis

[2] = system: Acinetobacter baumannii; assay: Antibacterial activity against Acinetobacter baumannii ATCC 19606 assessed as reduction in microbial growth preincubated for 20 to 24 hrs followed by subculture in absence of compound and measured on day 4 CLSI based broth microdilution susceptibility method; type: functional; conditions: time hrs 20-24
[3] = system: Acinetobacter baumannii; assay: Antibacterial activity against Acinetobacter baumannii ATCC 51432 assessed as reduction in microbial growth preincubated for 20 to 24 hrs followed by subculture in absence of compound and measured on day 4 CLSI based broth microdilution susceptibility method; type: functional; conditions: time hrs 20-24
[4] = AUC/dose in iv dosed CD-1 mouse measured up to 24 hrs by LC-MS/MS analysis; type: ADME, organism-based; conditions: in vivo
[5] = system: Klebsiella pneumoniae; assay: Antibacterial activity against Klebsiella pneumoniae ATCC 10031 assessed as reduction in microbial growth preincubated for 20 to 24 hrs followed by subculture in absence of compound and measured on day 4 CLSI based broth microdilution susceptibility method; type: functional; conditions: time hrs 20-24
[6] = system: Escherichia coli; assay: Antibacterial activity against Escherichia coli ATCC 25922 infected in ICR mouse model of neutropenic thigh infection assessed as reduction in microbial growth at 10 to 25 mg/kg, iv and measured after 12 hrs; type: functional, organism-based; conditions: dose mg/kg 10-25, time 12.0 hrs
[7] = Half life in iv dosed CD-1 mouse measured up to 24 hrs by LC-MS/MS analysis; type: ADME, organism-based; conditions: in vivo
[8] = Cmax/dose in iv dosed CD-1 mouse measured up to 24 hrs by LC-MS/MS analysis; type: ADME, organism-based; conditions: in vivo
[9] = Plasma protein binding in iv dosed CD-1 mouse measured up to 24 hrs by LC-MS/MS analysis; type: ADME, organism-based; conditions: read-out: PPB (converted)
[10] = system: Escherichia coli; assay: Antibacterial activity against Escherichia coli ATCC BAA-2340 assessed as reduction in microbial growth preincubated for 20 to 24 hrs followed by subculture in absence of compound and measured on day 4 CLSI based broth microdilution susceptibility method; type: functional; conditions: time hrs 20-24
[11] = system: Escherichia coli; assay: Antibacterial activity against Escherichia coli ATCC 25922 infected in ICR mouse model of neutropenic thigh infection assessed as reduction in microbial growth at 40 to 45 mg/kg, iv bid for 12 hrs; type: functional, organism-based
[12] = Volume of distribution at steady state in iv dosed CD-1 mouse measured up to 24 hrs by LC-MS/MS analysis; type: ADME, organism-based; conditions: in vivo, read-out: Vdss
[13] = system: Pseudomonas aeruginosa; assay: Antibacterial activity against Pseudomonas aeruginosa ATCC BAA-2113 assessed as reduction in microbial growth preincubated for 20 to 24 hrs followed by subculture in absence of compound and measured on day 4 CLSI based broth microdilution susceptibility method; type: functional; conditions: time hrs 20-24
[14] = physchem; conditions: PBS, pH 6.5
Description: Solubility of compound in PBS at pH 6.5 incubated for over night by HPLC-UV based lyophilization solubility assay

[15] = fAUC in Escherichia coli ATCC 25922 infected ICR mouse model of neutropenic thigh infection; type: ADME; conditions: 45 mg/kg, 12 h
[16] = system: Klebsiella pneumoniae; assay: Antibacterial activity against Klebsiella pneumoniae ATCC 700603 assessed as reduction in microbial growth preincubated for 20 to 24 hrs followed by subculture in absence of compound and measured on day 4 CLSI based broth microdilution susceptibility method; type: functional; conditions: time hrs 20-24
[17] = system: Escherichia coli; assay: Antibacterial activity against Escherichia coli ATCC 25922 infected in ICR mouse model of neutropenic thigh infection assessed as reduction in colony forming unit at 45 mg/kg, iv bid for 12 hrs; type: functional, organism-based
[18] = system: Escherichia coli; assay: microbe, parasite or virus in culture; conditions: ATCC 25922
Description: Antibacterial activity against Escherichia coli ATCC 25922 assessed as reduction in microbial growth preincubated for 20 to 24 hrs followed by subculture in absence of compound and measured on day 4 CLSI based broth microdilution susceptibility method

[19] = Ratio of fAUC in Escherichia coli ATCC 25922 infected ICR mouse model of neutropenic thigh infection to MIC for Escherichia coli ATCC […]; type: ADME; conditions: 45 mg/kg, 12 h
[20] = Protein binding in plasma (unknown origin) assessed as unbound fraction at 1 uM after 5 hrs by LC/MS-MS analysis; type: ADME, cell-free
[21] = system: Acinetobacter baumannii; assay: Antibacterial activity against Acinetobacter baumannii ATCC BAA-747 assessed as reduction in microbial growth preincubated for 20 to 24 hrs followed by subculture in absence of compound and measured on day 4 CLSI based broth microdilution susceptibility method; type: functional; conditions: time hrs 20-24
[22] = system: Pseudomonas aeruginosa; assay: Antibacterial activity against Pseudomonas aeruginosa PAO1 assessed as reduction in microbial growth preincubated for 20 to 24 hrs followed by subculture in absence of compound and measured on day 4 CLSI based broth microdilution susceptibility method; type: functional; conditions: time hrs 20-24
[23] = system: Pseudomonas aeruginosa; assay: Antibacterial activity against Pseudomonas aeruginosa ATCC 27853 assessed as reduction in microbial growth preincubated for 20 to 24 hrs followed by subculture in absence of compound and measured on day 4 CLSI based broth microdilution susceptibility method; type: functional; conditions: time hrs 20-24
[24] = system: Klebsiella pneumoniae; assay: Antibacterial activity against Klebsiella pneumoniae ATCC BAA-2146 assessed as reduction in microbial growth preincubated for 20 to 24 hrs followed by subculture in absence of compound and measured on day 4 CLSI based broth microdilution susceptibility method; type: functional; conditions: time hrs 20-24
[25] = system: Escherichia coli; assay: Antibacterial activity against Escherichia coli ATCC 35218 assessed as reduction in microbial growth preincubated for 20 to 24 hrs followed by subculture in absence of compound and measured on day 4 CLSI based broth microdilution susceptibility method; type: functional; conditions: time hrs 20-24
[26] = Clearance in iv dosed CD-1 mouse measured up to 24 hrs by LC-MS/MS analysis; type: ADME, organism-based; conditions: in vivo
[27] = Intrinsic clearance in mouse hepatocytes by LC/MS-MS analysis; type: ADME, cell-based, Hepatocyte
[28] = system: Escherichia coli; assay: microbe, parasite or virus in culture; conditions: ATCC 29213
Description: Antibacterial activity against Escherichia coli ATCC 29213 assessed as reduction in microbial growth preincubated for 20 to 24 hrs followed by subculture in absence of compound and measured on day 4 CLSI based broth microdilution susceptibility method

[29] = Distribution coefficient between octanol and buffer, log D of the compound in pH 7.4 buffer by CAMDIS assay; type: physicochemical
[30] = Dissociation constant, pKa of compound by photometric titration assay; type: physicochemical
[31] = physchem
Description: Ionization constant (acid), pKa of the compound by photometric titration assay

## CCNc1cc(F)cc2c1[nH]c1ncc(-c3cnc(OC)nc3)c(-n3cc(CN)c(C(F)(F)F)n3)c12
[1]
  CLint scaled at 0.5 h: < 20.2 mL/min/kg
[2]
  MIC: 0.78 µg/mL
[3]
  MIC: 0.78 µg/mL
[4]
  AUC/dose: 341 kg·ng·h/mL/mg
[5]
  MIC: < 0.02 µg/mL
[6]
  Activity: Active
[7]
  half-life: 1.6 h
[8]
  Cmax/dose: 494 kg·ng/mL/mg
[9]
  fraction unbound at 24 h: 0.11
[10]
  MIC: 12.5 µg/mL
[11]
  Activity: Active
[12]
  Vd: 3.6 L/kg
[13]
  MIC: 1.56 µg/mL
[14]
  solubility: 15 µg/mL (≈ 30 µM)
[15]
  fAUC: 30000 ng·h/mL
[16]
  MIC: 6.26 µg/mL
[17]
  Activity: Active
[18]
  MIC: 0.31 µg/mL (≈ 0.619 µM)
[19]
  fAUC/MIC: >= 6
[20]
  fraction unbound at 5 h, 1 µM: 0.027
[21]
  MIC: 0.39 µg/mL
[22]
  MIC: 1.3 µg/mL
[23]
  MIC: 1.56 µg/mL
[24]
  MIC: 12.5 µg/mL
[25]
  MIC: 3.13 µg/mL
[26]
  clearance: 48 mL/min/kg
[27]
  CLH: 45.3 µg/mL

## CCNc1cc(F)cc2c1[nH]c1ncc(-c3cncc(Cc4nnn[nH]4)c3)c(-n3ccc(C(F)(F)F)n3)c12
[28]
  MIC: 0.444 µg/mL (≈ 0.85 µM)
[18]
  MIC: > 11.4 µg/mL
[29]
  logD: 1.93
[30]
  pKa: 4.78

## CCNc1cc(F)cc2c1[nH]c1ncc(-c3cncc(C#N)c3)c(-n3ccc(C(F)(F)F)n3)c12
[1]
  CLint scaled at 0.5 h: 61.8 mL/min/kg
[2]
  MIC: 0.73 µg/mL
[3]
  MIC: > 23.3 µg/mL
[5]
  MIC: 0.73 µg/mL
[10]
  MIC: 2.91 µg/mL
[13]
  MIC: 1.45 µg/mL
[14]
  solubility: < 0.3 µg/mL
[28]
  MIC: < 0.016 µg/mL
[16]
  MIC: 1.45 µg/mL
[18]
  MIC: 0.5 µg/mL (≈ 1.07 µM)
[29]
  logD: 3.63
[21]
  MIC: 1.45 µg/mL
[22]
  MIC: 2 µg/mL
[23]
  MIC: 5.82 µg/mL
[24]
  MIC: 5.82 µg/mL
[25]
  MIC: 1.45 µg/mL

## CCNc1cc(F)cc2c1[nH]c1ncc(-c3cncnc3)c(-n3ccc(C(F)(F)F)n3)c12
[1]
  CLint scaled at 0.5 h: 76.1 mL/min/kg
[2]
  MIC: 0.17 µg/mL
[3]
  MIC: 1.38 µg/mL
[5]
  MIC: 0.09 µg/mL
[10]
  MIC: 1.38 µg/mL
[13]
  MIC: 0.34 µg/mL
[14]
  solubility: < 0.2 µg/mL
[28]
  MIC: < 0.016 µg/mL
[16]
  MIC: 0.69 µg/mL
[18]
  MIC: 0.25 µg/mL (≈ 0.566 µM)
[29]
  logD: 3.48
[21]
  MIC: 0.69 µg/mL
[22]
  MIC: 2 µg/mL
[23]
  MIC: 1.38 µg/mL
[24]
  MIC: 1.38 µg/mL
[25]
  MIC: 0.34 µg/mL

## CCNc1cc(F)cc2c1[nH]c1ncc(-c3cnc4ccnn4c3)c(-n3ccc(C(F)(F)F)n3)c12
[2]
  MIC: 0.38 µg/mL
[3]
  MIC: 1.5 µg/mL
[5]
  MIC: 0.38 µg/mL
[10]
  MIC: 0.75 µg/mL
[13]
  MIC: 0.75 µg/mL
[28]
  MIC: 0.31 µg/mL (≈ 0.645 µM)
[16]
  MIC: 0.75 µg/mL
[18]
  MIC: 0.25 µg/mL (≈ 0.52 µM)
[29]
  logD: 3.54
[21]
  MIC: 0.75 µg/mL
[22]
  MIC: 2 µg/mL
[23]
  MIC: 1.5 µg/mL
[24]
  MIC: 1.5 µg/mL
[25]
  MIC: 0.75 µg/mL

## CCNc1cc(F)cc2c1[nH]c1ncc(-c3cnc(OC)nc3)c(-n3ncc4c3CNC4)c12
[1]
  CLint scaled at 0.5 h: 21.8 mL/min/kg
[2]
  MIC: 5.56 µg/mL
[3]
  MIC: 5.56 µg/mL
[4]
  AUC/dose: 327 kg·ng·h/mL/mg
[5]
  MIC: 0.09 µg/mL
[7]
  half-life: 0.8 h
[8]
  Cmax/dose: 792 kg·ng/mL/mg
[9]
  fraction unbound at 24 h: 0.11
[10]
  MIC: 2.78 µg/mL
[12]
  Vd: 1.6 L/kg
[13]
  MIC: 11.1 µg/mL
[14]
  solubility: 350 µg/mL (≈ 787 µM)
[16]
  MIC: 22.2 µg/mL
[18]
  MIC: 0.81 µg/mL (≈ 1.82 µM)
[20]
  fraction unbound at 5 h, 1 µM: 0.11
[21]
  MIC: 2.78 µg/mL
[22]
  MIC: 10 µg/mL
[23]
  MIC: 11.1 µg/mL
[24]
  MIC: 22.2 µg/mL
[25]
  MIC: 5.56 µg/mL
[26]
  clearance: 51 mL/min/kg
[27]
  CLH: 53.9 µg/mL

## CCNc1cc(F)cc2c1[nH]c1ncc(-c3cncc(CC(=O)O)c3)c(-n3ccc(C(F)(F)F)n3)c12
[28]
  MIC: 0.25 µg/mL (≈ 0.502 µM)
[18]
  MIC: > 8 µg/mL
[29]
  logD: 2.02
[30]
  pKa: 3.51

## CCNc1cc(F)cc2c1[nH]c1ncc(-c3cncc(CN)c3)c(-n3ccc(C(F)(F)F)n3)c12
[31]
  pKa: 8.62
[28]
  MIC: < 0.25 µg/mL
[18]
  MIC: 1 µg/mL (≈ 2.13 µM)
[29]
  logD: 2.94
